Measurements taken from US20200231638A1, “STABILIZED ANTI-MICROBIAL PEPTIDES” (priority 2015, published 2020).
Bridge positions count the residues as written; N and C are the ends. Square brackets hold non-standard residues; d marks the D form. Peptide text beside a SMILES is read from it. Hyp = O=C(O)[C@@H]1C[C@@H](O)CN1; S5 = C=CCCC[C@](C)(N)C(=O)O; Nle = CCCC[C@H](N)C(=O)O; Aib = CC(C)(N)C(=O)O

Key:
S. aureus = format: cell-based, Staphylococcus aureus
Method in brief: (§1)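 Broth microdilution in anion-exchange-refined Mueller-Hinton broth; serially diluted peptide mixed with bacteria at 5×10^5 CFU/ml final inoculum. Incubated 20-24 hours at 37° C. MIC taken as lowest peptide concentration with no visible growth.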

E. coli = format: cell-based, Escherichia coli
Method in brief: as §1

B. cereus = format: cell-based, Bacillus cereus
Method in brief: as §1

human red blood cells = format: cell-based; settings: red cells of human, 1 h, 25
Method in brief: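 Hemolysis expressed as absorbance of released hemoglobin (570 nm) normalized between untreated and 1% Triton-X100 controls, with MHC taken as peptide concentration giving under 1% release. Peptide dilutions were exposed for 1 h at 37° C to a 1% (v/v) suspension of washed human red cells in PBS.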

P. aeruginosa = format: cell-based, Pseudomonas aeruginosa
Method in brief: as §1

SMILES	MIC S. aureus (S. aureus)	MIC E. coli (E. coli)	MIC B. cereus (B. cereus)	% Hemolysis at 25 μg/ml (human red blood cells)	MIC P. aeruginosa (P. aeruginosa)
CCCC[C@H](NC(=O)[C@]1(C)CCCC=CCCC[C@](C)(NC(=O)[C@H](C)NC(=O)[C@H](CCCCN)NC(=O)CNC(=O)[C@H](Cc2ccccc2)NC(=O)[C@H](CCCCN)NC(=O)[C@H](CCCCN)NC(=O)[C@H](C)NC(=O)[C@H](CO)NC(=O)[C@H](Cc2c[nH]cn2)NC(=O)[C@H](CC(C)C)NC(=O)[C@H](Cc2ccccc2)NC(=O)[C@H](CCCCN)NC(=O)[C@H](CCC(=O)O)NC(=O)[C@@H](NC(=O)CN)[C@@H](C)CC)C(=O)N[C@@H](C(C)C)C(=O)NCC(=O)N[C@@H](CCC(=O)O)C(=O)N1)C(=O)N[C@@H](CC(N)=O)C(=O)N[C@@H](CO)C(N)=O [Mag(i + 4)15(G3E), GIEKFLHSAKKFGKAXVGEXBNS] (H-GIEKFLHSAKKFGKA[S5]VGE[S5][Nle]NS-NH2; staple 16-20)	50 µg/mL	3.1 µg/mL	12.5 µg/mL	3.9%	12.5 µg/mL
CCCC[C@H](NC(=O)[C@]1(C)CCCC=CCCC[C@](C)(NC(=O)[C@H](C)NC(=O)[C@H](CCCCN)NC(=O)CNC(=O)[C@H](Cc2ccccc2)NC(=O)[C@H](CCCCN)NC(=O)[C@H](CCCCN)NC(=O)[C@H](C)NC(=O)[C@H](CO)NC(=O)[C@H](Cc2c[nH]cn2)NC(=O)[C@H](CC(C)C)NC(=O)[C@H](Cc2ccccc2)NC(=O)[C@H](CCCCN)NC(=O)[C@H](Cc2c[nH]cn2)NC(=O)[C@@H](NC(=O)CN)[C@@H](C)CC)C(=O)N[C@@H](C(C)C)C(=O)NCC(=O)N[C@@H](CCC(=O)O)C(=O)N1)C(=O)N[C@@H](CC(N)=O)C(=O)N[C@@H](CO)C(N)=O [Mag(i + 4)15(G3H), GIHKFLHSAKKFGKAXVGEXBNS] (H-GIHKFLHSAKKFGKA[S5]VGE[S5][Nle]NS-NH2; staple 16-20)	25 µg/mL	1.6 µg/mL	6.2 µg/mL	5.1%	12.5 µg/mL
CCCC[C@H](NC(=O)[C@]1(C)CCCC=CCCC[C@](C)(NC(=O)[C@H](C)NC(=O)[C@H](CCCCN)NC(=O)CNC(=O)[C@H](Cc2ccccc2)NC(=O)[C@H](CCCCN)NC(=O)[C@H](CCCCN)NC(=O)[C@H](C)NC(=O)[C@H](CO)NC(=O)[C@H](Cc2c[nH]cn2)NC(=O)[C@H](CC(C)C)NC(=O)[C@H](Cc2ccccc2)NC(=O)[C@H](CCCCN)NC(=O)[C@H](CCCCN)NC(=O)[C@@H](NC(=O)CN)[C@@H](C)CC)C(=O)N[C@@H](C(C)C)C(=O)NCC(=O)N[C@@H](CCC(=O)O)C(=O)N1)C(=O)N[C@@H](CC(N)=O)C(=O)N[C@@H](CO)C(N)=O [Mag(i + 4)15(G3K), GIKKFLHSAKKFGKAXVGEXBNS] (H-GIKKFLHSAKKFGKA[S5]VGE[S5][Nle]NS-NH2; staple 16-20)	12.5 µg/mL	1.6 µg/mL	6.2 µg/mL	3.8%	3.1 µg/mL
CCCC[C@H](NC(=O)[C@]1(C)CCCC=CCCC[C@](C)(NC(=O)[C@H](C)NC(=O)[C@H](CCCCN)NC(=O)C(C)(C)NC(=O)[C@H](Cc2ccccc2)NC(=O)[C@H](CCCCN)NC(=O)[C@H](CCCCN)NC(=O)[C@H](C)NC(=O)[C@H](CO)NC(=O)[C@H](Cc2c[nH]cn2)NC(=O)[C@H](CC(C)C)NC(=O)[C@H](Cc2ccccc2)NC(=O)[C@H](CCCCN)NC(=O)CNC(=O)[C@@H](NC(=O)CN)[C@@H](C)CC)C(=O)N[C@@H](C(C)C)C(=O)NCC(=O)N[C@@H](CCC(=O)O)C(=O)N1)C(=O)N[C@@H](CC(N)=O)C(=O)N[C@@H](CO)C(N)=O [Mag(i + 4)15(G13!), GIGKFLHSAKKF!KAXVGEXBNS] (H-GIGKFLHSAKKF[Aib]KA[S5]VGE[S5][Nle]NS-NH2; staple 16-20)	3.1 µg/mL	1.6 µg/mL	3.1 µg/mL	71.5%	3.1 µg/mL
CCCC[C@H](NC(=O)[C@]1(C)CCCC=CCCC[C@](C)(NC(=O)[C@H](C)NC(=O)[C@H](CCCCN)NC(=O)[C@@H]2C[C@@H](O)CN2C(=O)[C@H](Cc2ccccc2)NC(=O)[C@H](CCCCN)NC(=O)[C@H](CCCCN)NC(=O)[C@H](C)NC(=O)[C@H](CO)NC(=O)[C@H](Cc2c[nH]cn2)NC(=O)[C@H](CC(C)C)NC(=O)[C@H](Cc2ccccc2)NC(=O)[C@H](CCCCN)NC(=O)CNC(=O)[C@@H](NC(=O)CN)[C@@H](C)CC)C(=O)N[C@@H](C(C)C)C(=O)NCC(=O)N[C@@H](CCC(=O)O)C(=O)N1)C(=O)N[C@@H](CC(N)=O)C(=O)N[C@@H](CO)C(N)=O [Mag(i + 4)15(G13&), GIGKFLHSAKKF&KAXVGEXBNS] (H-GIGKFLHSAKKF[Hyp]KA[S5]VGE[S5][Nle]NS-NH2; staple 16-20)	>50 µg/mL	12.5 µg/mL	>50 µg/mL	1.3%	50 µg/mL
CCCC[C@H](NC(=O)[C@]1(C)CCCC=CCCC[C@](C)(NC(=O)[C@H](C)NC(=O)[C@H](CCCCN)NC(=O)[C@H](C)NC(=O)[C@H](Cc2ccccc2)NC(=O)[C@H](CCCCN)NC(=O)[C@H](CCCCN)NC(=O)[C@H](C)NC(=O)[C@H](CO)NC(=O)[C@H](Cc2c[nH]cn2)NC(=O)[C@H](CC(C)C)NC(=O)[C@H](Cc2ccccc2)NC(=O)[C@H](CCCCN)NC(=O)CNC(=O)[C@@H](NC(=O)CN)[C@@H](C)CC)C(=O)N[C@@H](C(C)C)C(=O)NCC(=O)N[C@@H](CCC(=O)O)C(=O)N1)C(=O)N[C@@H](CC(N)=O)C(=O)N[C@@H](CO)C(N)=O [Mag(i + 4)15(G13A), GIGKFLHSAKKFAKAXVGEXBNS] (H-GIGKFLHSAKKFAKA[S5]VGE[S5][Nle]NS-NH2; staple 16-20)	3.1 µg/mL	1.6 µg/mL	3.1 µg/mL	20.5%	6.2 µg/mL
CCCC[C@H](NC(=O)[C@]1(C)CCCC=CCCC[C@](C)(NC(=O)[C@H](C)NC(=O)[C@H](CCCCN)NC(=O)[C@H](CCC(=O)O)NC(=O)[C@H](Cc2ccccc2)NC(=O)[C@H](CCCCN)NC(=O)[C@H](CCCCN)NC(=O)[C@H](C)NC(=O)[C@H](CO)NC(=O)[C@H](Cc2c[nH]cn2)NC(=O)[C@H](CC(C)C)NC(=O)[C@H](Cc2ccccc2)NC(=O)[C@H](CCCCN)NC(=O)CNC(=O)[C@@H](NC(=O)CN)[C@@H](C)CC)C(=O)N[C@@H](C(C)C)C(=O)NCC(=O)N[C@@H](CCC(=O)O)C(=O)N1)C(=O)N[C@@H](CC(N)=O)C(=O)N[C@@H](CO)C(N)=O [Mag(i + 4)15(G13E), GIGKFLHSAKKFEKAXVGEXBNS] (H-GIGKFLHSAKKFEKA[S5]VGE[S5][Nle]NS-NH2; staple 16-20)	>50 µg/mL	25 µg/mL	>50 µg/mL	2.2%	>50 µg/mL
CCCC[C@H](NC(=O)[C@]1(C)CCCC=CCCC[C@](C)(NC(=O)[C@H](C)NC(=O)[C@H](CCCCN)NC(=O)[C@H](CCCCN)NC(=O)[C@H](Cc2ccccc2)NC(=O)[C@H](CCCCN)NC(=O)[C@H](CCCCN)NC(=O)[C@H](C)NC(=O)[C@H](CO)NC(=O)[C@H](Cc2c[nH]cn2)NC(=O)[C@H](CC(C)C)NC(=O)[C@H](Cc2ccccc2)NC(=O)[C@H](CCCCN)NC(=O)CNC(=O)[C@@H](NC(=O)CN)[C@@H](C)CC)C(=O)N[C@@H](C(C)C)C(=O)NCC(=O)N[C@@H](CCC(=O)O)C(=O)N1)C(=O)N[C@@H](CC(N)=O)C(=O)N[C@@H](CO)C(N)=O [Mag(i + 4)15(G13K), GIGKFLHSAKKFKKAXVGEXBNS] (H-GIGKFLHSAKKFKKA[S5]VGE[S5][Nle]NS-NH2; staple 16-20)	>50 µg/mL	3.1 µg/mL	>50 µg/mL	1.8%	12.5 µg/mL
CCCC[C@H](NC(=O)[C@]1(C)CCCC=CCCC[C@](C)(NC(=O)[C@H](C)NC(=O)[C@H](CCCCN)NC(=O)[C@@H]2CCCN2C(=O)[C@H](Cc2ccccc2)NC(=O)[C@H](CCCCN)NC(=O)[C@H](CCCCN)NC(=O)[C@H](C)NC(=O)[C@H](CO)NC(=O)[C@H](Cc2c[nH]cn2)NC(=O)[C@H](CC(C)C)NC(=O)[C@H](Cc2ccccc2)NC(=O)[C@H](CCCCN)NC(=O)CNC(=O)[C@@H](NC(=O)CN)[C@@H](C)CC)C(=O)N[C@@H](C(C)C)C(=O)NCC(=O)N[C@@H](CCC(=O)O)C(=O)N1)C(=O)N[C@@H](CC(N)=O)C(=O)N[C@@H](CO)C(N)=O [Mag(i + 4)15(G13P), GIGKFLHSAKKFPKAXVGEXBNS] (H-GIGKFLHSAKKFPKA[S5]VGE[S5][Nle]NS-NH2; staple 16-20)	>50 µg/mL	3.1 µg/mL	25 µg/mL	2.0%	25 µg/mL
CCCC[C@H](NC(=O)[C@]1(C)CCCC=CCCC[C@](C)(NC(=O)[C@H](C)NC(=O)[C@H](CCCCN)NC(=O)[C@@H](C)NC(=O)[C@H](Cc2ccccc2)NC(=O)[C@H](CCCCN)NC(=O)[C@H](CCCCN)NC(=O)[C@H](C)NC(=O)[C@H](CO)NC(=O)[C@H](Cc2c[nH]cn2)NC(=O)[C@H](CC(C)C)NC(=O)[C@H](Cc2ccccc2)NC(=O)[C@H](CCCCN)NC(=O)CNC(=O)[C@@H](NC(=O)CN)[C@@H](C)CC)C(=O)N[C@@H](C(C)C)C(=O)NCC(=O)N[C@@H](CCC(=O)O)C(=O)N1)C(=O)N[C@@H](CC(N)=O)C(=O)N[C@@H](CO)C(N)=O [Mag(i + 4)15(G13a)] (H-GIGKFLHSAKKF[dA]KA[S5]VGE[S5][Nle]NS-NH2; staple 16-20)	6.2 µg/mL	1.6 µg/mL	6.2 µg/mL	4.3%	3.1 µg/mL
